Assay results: US10045966B2, “Compositions and methods for treating microbial infections” (Vanderbilt Univeristy, priority 2012, dated 2018)
“Also recorded” adds a separate entry of the source.

Legend:
[1] = test system: intracellular heme; assay: Intracellular heme quantification; assay type: cell-based, S. aureus; conditions: for Intracellular (endogenous) heme levels: pyridine hemochromogen assay / UPLC-MS
Experimental: (B) Heme levels in triplicate cultures of S. aureus treated with the indicated additive were quantified using the pyridine hemochromogen assay and normalized to the concentration of protein in the whole cell lysates. […] (A and B) Error bars represent one standard deviation from the mean. (C) Exact-mass mass spectrometric analysis was used in conjunction with UPLC to detect and quantify heme in protoplasts from cells treated with 40 μM '882 or vehicle grown in triplicate. Measured heme molecules were referenced to estimated CFUs per pellet, factoring in dilutions. Dead or lysed cells would also contribute to the measurement. […] Samples measured in duplicate or triplicate injections had typical errors of <5% between analytical replicates. Error bars represent the standard deviation and significance was calculated using a two-tailed Student's t-test.
Heme levels were quantified using the pyridine hemochromogen assay and normalized to the concentration of protein in the whole cell lysates.
To directly test if '882 exposure increases heme levels within staphylococci, intracellular heme abundance was measured using two distinct approaches. First, intracellular heme levels were quantified using a commercially available heme quantification kit (BioAssay systems).

[2] = test system: HssRS; assay: XylE reporter assay (hrtAB promoter-xylE fusion) for HssRS activation; assay type: cell-based, S. aureus; conditions: for HssRS activation (XylE reporter activity): S. aureus carrying phrt.xylE; for HssRS activation in heme auxotroph ΔhemB: S. aureus hemB::ermC (ΔhemB) carrying phrt.xylE
Experimental: (§1) FIGS. 9A-9C describe a high throughput screen that identifies small molecule activators of HssRS. (A) A secondary screen consisting of a XylE reporter assay verified the activity of the top 110 hits from the primary screen, including '882. Triplicate cultures of S. aureus WT and ΔhssR transformed with the hrtAB promoter-xylE fusion-containing plasmid (phrt.xylE) were grown in the presence of the indicated additive and XylE activity was measured. (B) The structure of lead compound VU0038882 (′882). (C) '882 was confirmed as a hit in a tertiary screen that measured the ability of the compound to pre-adapt S. aureus for growth in 20 μM heme. Triplicate cultures of WT S. aureus were grown overnight in medium containing the indicated additive and sub-cultured into medium containing 20 μM heme. Growth was monitored by measuring the optical density at 600 nm (OD600) over time. (A and C) Error bars represent one standard deviation from the mean.
The present inventors designed and conducted a screening assay to identify activators of HssRS. With reference to FIG. 2A, a reporter plasmid containing the luxABCDE operon from Photorhabdus luminescens driven by the hrtAB promoter (phrt.lux) was used to screen 160,000 compounds from the VICB small molecule library with luminescence. With reference to FIG. 2B, 110 of the top hits from the primary screen were confirmed in a secondary screen using a xylE reporter gene driven by the hrtAB promoter (phrt.xylE). […] Activation of HssRS by a sub-toxic concentration of heme protects S. aureus from a subsequent toxic concentration of heme by upregulating HrtAB. The inhibition of growth due to heme toxicity is determined by measuring the optical density of bacterial cultures at 600 nm. In each screen the present inventors identified hits by comparing their activity to that of heme. […] Cultures of wildtype and ΔhssR carrying phrt.xylE were assayed for XylE activity upon '8882 treatment. The screening method designed by the present inventors as able to successfully identify small molecule activators of the S. aureus heme stress response.
Analogs of '882 were divided into two classes, and chemical modifications of both the Western-naphthol ring and the Eastern-furan ring were conducted. Each set was screened against the XylE assay with heme and '882 as standards for comparison. […] Examples of synthesized compounds and their activity classifications are shown above.

[3] = test system: S. aureus; assay: Pre-adaptation for heme toxicity, growth curve analysis; assay type: cell-based; conditions: overnight pre-treatment, subculture into 20 μM heme
Experimental: as §1, with “(A and C) Error bars represent one standard deviation from the mean.” left out
The present inventors designed and conducted a screening assay to identify activators of HssRS. With reference to FIG. 2A, a reporter plasmid containing the luxABCDE operon from Photorhabdus luminescens driven by the hrtAB promoter (phrt.lux) was used to screen 160,000 compounds from the VICB small molecule library with luminescence. […] The inhibition of growth due to heme toxicity is determined by measuring the optical density of bacterial cultures at 600 nm. […]

[4] = test system: Corynebacterium diphtheriae; assay: Adaptation to heme toxicity, CFU enumeration; assay type: cell-based; conditions: C. diphtheriae, subculture into 15 μM heme, versus non-adapted cultures
[5] = test system: Staphylococcus haemolyticus; assay: Adaptation to heme toxicity, growth curve; assay type: cell-based; conditions: S. haemolyticus, subculture into 30 μM heme, versus non-adapted cultures
[6] = test system: IsdG; assay: IsdG abundance by immunoblot as reporter of cytoplasmic heme; assay type: cell-based, S. aureus
Experimental: Wild type and ΔhemV S. aureus transformed with isdG driven under the constitutive Igt promoter (pIgt.isdG) were grown in the presence of increasing concentrations of '8882. Whole cell lysates, along with a protein standard, were blotted with anti IsdG polyclonal antisera and IsdG levels were quantified by densitometry.
Second, the intracellular abundance of the heme stabilized protein IsdG was used as a barometer of functional cytoplasmic heme levels (43), i.e., IsdG is a heme stabilized protein that can be used as a reporter for intracellular heme levels. With reference to FIG. 4A, S. aureus ΔisdG and ΔhemB were transformed with a plasmid that constitutively expresses IsdG (plgt.isdG). These strains were grown to stationary phase in the presence of the indicated concentration of '8882 or heme. Whole cell lysates were immunoblotted with anti-IsdG polyclonal antisera and bands were quantified using densitometry.
To determine if the endogenous heme produced as a result of '882 exposure is available for use in cellular processes, cytoplasmic heme availability was measured by quantifying intracellular levels of the cytoplasmic heme oxygenase IsdG. In the absence of exogenous heme, IsdG is rapidly degraded; however, heme binding stabilizes IsdG and reduces its proteolytic degradation. Therefore, the abundance of IsdG reflects the cytoplasmic levels of heme.

[7] = test system: S. aureus; assay type: cell-based; conditions: for Growth of ΔmenB (cannot respire, solely ferments): S. aureus ΔmenB, aerobic and anaerobic
[8] = test system: C. diphtheriae; assay: Growth of C. diphtheriae; assay type: cell-based
[9] = test system: S. aureus; assay: Fermentative activity: pH, D-glucose and lactate in culture supernatants; assay type: cell-based; conditions: aerobic cultures
Experimental: FIGS. 12A-12C show examples of the present invention diminish fermentative activity. S. aureus was grown in triplicate under aerobic conditions in the presence of vehicle (black lines) or 40 μM '882 (gray lines). At the indicated time intervals, culture supernatants were sampled and the (A) pH, (B) D-glucose, and (C) D- and L-lactate were quantified. Error bars represent one standard deviation from the mean.
(§2) The effects of '8882 on fermentation was studied. With reference to FIG. 7A, S. aureus was grown in the presence of the indicated concentration of '8882 or cyanide. Growth was monitored over time by measuring the optical density at 600 nm and normalized to vehicle treated S. aureus. With reference to FIG. 7B, the concentration of glucose and lactate was measured in supernatants collected from S. aureus cultures containing vehicle or '8882. With reference to FIG. 7C, S. aureus grown in the presence or absence of '8882 was subjected to nitric oxide stress after 5 hours of growth. With reference to FIG. 7D, S. aureus was incubated with murine neutrophils in media containing either vehicle or '8882. Bacterial viability was determined by enumerating colony forming units on solid media.

[10] = test system: S. aureus; assay type: cell-based; conditions: 24 h; for Viable and gentamicin-resistant bacteria, single agent: treatment alone
Experimental: (A) S. aureus wildtype (WT, dashed lines), the menaquinone auxotroph (ΔmenB, dotted lines), and the heme auxotroph hemB::ermC (ΔhemB, solid lines) were grown in triplicate under aerobic (aer, black lines) and anaerobic (ana, gray lines) conditions in the presence of the indicated log of the concentration of '882 (μM). After 18 h the absorbance at 600 nm (OD600) was measured and normalized to vehicle (DMSO) treated bacteria. Curves were fit by nonlinear regression analysis and absolute log IC50 values were calculated in Prism with the top set at 1.0 and the bottom set at 0.15. […] Error bars represent the standard error of the mean. (B) Triplicate cultures of S. aureus were grown in the presence of the indicated additive. […] Shown is the average of three independent experiments. Error bars represent one standard deviation from the mean. (C) S. aureus was grown in the presence of vehicle (DMSO) or 40 μM '882 and coated in serum. Murine PMNs were elicited with casein and harvested from the peritoneum. The ability of neutrophils to kill S. aureus in the presence of '882 was assessed by comparing CFUs recovered from neutrophil-exposed S. aureus to those recovered from identical conditions lacking neutrophils. The mean of at least six independent experiments performed in triplicate are represented by the data; error bars represent standard error of the mean and significance was determined by a two-tailed Student's t-test.
S. aureus SCVs are obligate fermenters that emerge in response to aminoglycoside treatment. […] To test this, S. aureus was grown in the presence of vehicle, gentamicin, '882, or a combination of gentamicin and '882, and the evolution of gentamicin resistance was monitored.

[11] = test system: S. aureus Newman; assay: Co-treatment with kanamycin, CFU enumeration after 24 h; assay type: cell-based; conditions: TSB
Experimental: With reference to FIG. 8A, S. aureus Newman was cultured in TSB containing the indicated amount of kanamycin or '8882. After 24 h colony forming units (CFUs) were enumerated on solid medium. The dashed line indicates the limit of detection (LOD) and the asterisk denotes that two of the three replicates were below the LOD. Turning to FIG. 8B, 50 ul of each experimental groups was plated on TSA at a dilution of 1:100 except for the co-treatment group, which was plated undiluted. Two of the three co-treated replicates had no viable colonies.

[12] = test system: S. aureus; assay: Neutrophil killing of S. aureus; assay type: cell-based; conditions: murine PMNs, 40 μM
[13] = test system: neutrophils; assay type: cell-based, Murine
[14] = test system: S. aureus; assay: Nitric oxide stress of S. aureus; assay type: cell-based; conditions: simultaneous exposure to NO.
Experimental: as §2

[15] = Chemical stability, rule of five and solubility; conditions: free base and trifluoroacetate salt
[16] = test system: S. aureus; assay: Systemic staphylococcal infection in mice, liver CFUs and abscesses; assay type: in vivo; conditions: mice infected intravenously, intraperitoneal treatment, 96 h
Experimental: FIGS. 16A-16D show embodiments of the preset invention reduce S. aureus pathogenesis in vivo. Mice infected retroorbitally with S. aureus were treated intraperitoneally with vehicle (10% Tween 80) or '373. After 96 h mice were sacrificed and (A) CFUs and (B) surface abscesses were enumerated from the livers. Each marker represents an individual mouse. Data were collected from three independent experiments resulting in n=13 for vehicle and n=12 for '373-treated mice once the highest and lowest values were removed from each group. The horizontal line indicates the mean and the error bars represent the standard error of the mean. Statistical significance was determined by a two-tailed Student's t-test. Livers from mice treated with the indicated dose of '373 were harvested 24 h post-infection (1 h after the 2nd treatment), sectioned, and mounted on MALDI target plates (C). (D) Tissue sections were imaged by MALDI-MS/MS for accumulation of a fragment of '373 by MALDI-MS/MS (m/z 255.2→134). Spectra were acquired at 10 microscans per step. 5 laser shots were acquired per pixel and pixels were obtained every 100 μm.

[17] = Liver tissue level by Imaging Mass Spectrometry and HPLC-MS; conditions: HPLC-MS of excised liver, 24 h post-infection

For `O=CC[C@@H](O)[C@H](O)[C@H](O)CO` [Compound 2dG, 2-deoxyglucose, reference compound], the “Intracellular (endogenous) heme levels” value [1] was “reduces endogenous heme levels”.

In the case of `Oc1c(-c2cc(-c3ccco3)[nH]n2)ccc2ccccc12` ['882], the “HssRS activation (XylE reporter activity)” value [2] is reported as “activates the hrtAB promoter in a dose-responsive manner”, the “HssRS activation (XylE reporter activity)” value ([2]; listed as '8882) is reported as “most potent activator of HssRS” and the “HssRS activation in heme auxotroph ΔhemB” value [2] is reported as “does not activate HssRS in ΔhemB”. For the same molecule, the “Pre-adaptation of S. aureus for heme toxicity” value [3] was “pre-adapts S. aureus for heme toxicity”, the “Survival in heme after pre-treatment” value [4] was “improved survival in heme” and the “Survival in heme after pre-treatment” value [5] was “improved survival in heme”. The “Increase of intracellular heme versus non-exposed bacteria” value ([1]; commercial heme quantification kit (BioAssay systems)) was “approximately 10%”, the “Intracellular (endogenous) heme levels” value [1] was “increase in a dose-responsive manner” and the “Intracellular abundance of IsdG” value ([6]; S. aureus constitutively expressing IsdG) was “increases the abundance of IsdG in a concentration-dependent fashion”. For the same molecule, the “Stabilization of IsdG in ΔhemB” value ([6]; S. aureus ΔhemB) was “not stabilized”, the “Bacteriostatic or bacteriocidal (CFU input versus output)” value [7] was “bacteriostatic to fermentatively growing staphylococci” and the “Concentration that halts S. aureus growth” value [7] was “less than 5 μM”. For the same molecule, the “Growth of ΔhemB (SCV deficient in heme biosynthesis)” value ([7]; S. aureus ΔhemB) was “sensitive to '882”, the “Growth of ΔmenB (cannot respire, solely ferments)” value [7] was “more susceptible to '882 toxicity than wildtype; also recorded: bacteriostatic” and the “Growth of wildtype S. aureus grown anaerobically” value ([7]; anaerobic) was “growth was dramatically reduced”. The “Growth of S. aureus in combination with potassium cyanide (KCN)” value ([7]; combined with KCN, aerobic) was “growth is inhibited, even under aerobic conditions”, the “Growth of C. diphtheriae” value [8] was “inhibits the growth of C. diphtheriae” and the “Glycolytic / fermentative activity (acidification, D-glucose consumption, lactate production)” value [9] was “reduced glycolytic activity”. For the same molecule, the “Glycolytic / fermentative activity (acidification, D-glucose consumption, lactate production)” value ([9]; listed as '8882) was “reduces the ability of S. aureus to ferment”, the “Gentamicin-resistant colonies, combination with gentamicin” value ([10]; combined with gentamicin) was “eliminated all detectable gentamicin-resistant colonies” and the “Reduction in bacterial viability, combination with gentamicin” value ([10]; combined with gentamicin) was 5 log. The “Viable and gentamicin-resistant bacteria, single agent” value [10] was “did not affect the number of viable or gentamicin-resistant bacteria”, the “Antibiotic efficacy on co-treatment with kanamycin” value [11] was “improves antibiotic efficacy in vitro” and the “Neutrophil-dependent killing of S. aureus” value [12] was “improves neutrophil-dependent killing of S. aureus”. The Neutrophil viability [13] was “does not overtly affect neutrophil viability”, the “Antibacterial effect of simultaneous exposure with nitric oxide (NO.)” value [14] was “more antibacterial than treatment with either molecule alone” and the Chemical stability [15] was “good chemical stability”. The “Rule of five violations” value [15] was “no rule of five violations” and the Solubility ([15]; DMSO and aqueous solution) was “good solubility in DMSO and aqueous solution”.

In the case of `C=CC1=C(C)c2cc3[n-]c(cc4[n-]c(cc5nc(cc1n2)C(C)=C5C=C)c(C)c4CCC(=O)O)c(CCC(=O)O)c3C.[Fe+2]` [heme, reference compound], the “HssRS activation in heme auxotroph ΔhemB” value [2] is reported as “activates HssRS in ΔhemB”, the “Survival in heme after pre-treatment” value [4] is reported as “improved survival in heme” and the “Survival in heme after pre-treatment” value [5] is reported as “improved survival in heme”.

In the case of `Oc1ccccc1-c1cc(-c2ccccc2F)[nH]n1` ['373], the “HssRS activation (XylE reporter activity)” value [2] is reported as “activates HssRS”, the “Pre-adaptation of S. aureus for heme toxicity” value [3] is reported as “pre-adapt S. aureus for heme toxicity” and the “Growth of ΔmenB (cannot respire, solely ferments)” value [7] is reported as “inhibits the growth of S. aureus ΔmenB, although to a lesser extent than '882”. The “Decrease in CFUs recovered from the livers versus vehicle” value [16] was 1 log, the “Number of liver abscesses” value [16] was “significant reduction in the number of liver abscesses” and the “Liver tissue level versus dose” value [17] was “linear relationship between tissue level and dose”.

For gentamicin [reference compound], the “Viable and gentamicin-resistant bacteria, single agent” value [10] was “became resistant to gentamicin”.
